The source of these data is patent US11440913B2, “Aminoimidazopyridazines as kinase inhibitors” (BRISTOL-MYERS SQUIBB COMPANY, priority 2017, dated 2022).

In general, IC50 refers to the midpoint of a concentration-inhibition curve.

Molecules are shown by their SMILES.

The target in test [1] is His-GST-TVMV-hRIPK1(1-324) (Homo sapiens (Human), UniProt Q13546). The test can be described thus: RIPK1 HTRF Binding Assay. As to conditions: HTRF binding, 1 h at rt; read-out: RIPK1 (IC50). The gist of the method:
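HTRF probe-displacement binding: 1 nM His-GST-TVMV-hRIPK1(1-324) (baculovirus construct), 90.6 nM probe, 0.2 nM anti-GST-Tb in 20 mM HEPES, 10 mM MgCl2, 0.015% Brij-35, 4 mM DTT, 0.05 mg/mL BSA. Incubated 1 h at rt; FRET 520/495 nm ratio, inhibition relative to DMSO-only wells.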
A general note: Time-resolved FRET reads energy transfer from a long-lived donor to a nearby acceptor.

Test [2] deals with MLKL phosphorylation in HT29-L23 human colorectal adenocarcinoma cells. The test can be described thus: MLKL Phosphorylation High-Content Assay. The test is classed as cell-based. As to conditions: Homo sapiens, 6 h, necroptosis induced with TNFα, SMAC mimetic and Z-VAD, read-out: pMLKL (IC50). The gist of the method:
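HT29-L23 cells pretreated 30 min at 37 °C with compound (6.25 to 0.106 μM final), then necroptosis induced with TNFα 35 ng/mL, SMAC mimetic 700 nM and Z-VAD 140 nM for 6 h. Fixed cells immunostained for MLKL pS358 and imaged; IC50 and Ymax from 4-parameter logistic fit.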

His-GST-TVMV-hRIPK1(1-324), sequence (Q13546 1-324): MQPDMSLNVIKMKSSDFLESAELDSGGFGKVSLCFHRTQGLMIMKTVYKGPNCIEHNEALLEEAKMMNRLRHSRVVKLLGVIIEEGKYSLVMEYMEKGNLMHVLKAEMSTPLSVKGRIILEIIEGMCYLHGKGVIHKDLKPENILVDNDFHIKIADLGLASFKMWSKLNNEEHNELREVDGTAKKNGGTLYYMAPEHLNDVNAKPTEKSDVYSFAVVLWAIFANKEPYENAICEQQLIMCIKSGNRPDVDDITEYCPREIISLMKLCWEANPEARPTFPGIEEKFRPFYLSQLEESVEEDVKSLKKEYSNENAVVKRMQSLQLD

Turning to `CC(=O)Nc1cn2nc(-c3cc(F)c(C)c(C(=O)NCc4c(F)cccc4C(=O)N4CCC(F)(F)C4)c3)ccc2n1` [Example 365, N-{[2-(3,3-difluoropyrrolidine-1-carbonyl)-6-fluorophenyl]methyl}-5-{2-acetamidoimidazo [1,2-b]pyridazin-6-yl}-3-fluoro-2-methylbenzamide], the IC50 in test [1] came to 37 nM; in test [2], 116 nM.

Take `CC(=O)Nc1cn2nc(-c3cc(F)c(F)c(C(=O)NCc4cc(OC(F)(F)F)ccc4F)c3)ccc2n1` [Example 366, 5-{2-acetamidoimidazo [1,2-b]pyridazin-6-yl}-2,3-difluoro-N-{[2-fluoro-5-(trifluoromethoxy)phenyl]methyl} benzamide]: the IC50 in test [1] was 13 nM; in test [2] it was 123 nM.

Regarding `CC(=O)Nc1cn2nc(-c3cc(F)c(F)c(C(=O)N[C@H](C)c4cc(OC(F)(F)F)ccc4F)c3)ccc2n1` [Example 367, 5-{2-acetamidoimidazo [1,2-b]pyridazin-6-yl}-2,3-difluoro-N-[(1R)-1-[2-fluoro-5-(trifluoromethoxy)phenyl]ethyl] benzamide], the figures for the IC50 in test [1] and in test [2] were 56 nM and 194 nM, respectively.

Turning to `CC(=O)Nc1cn2nc(-c3c(F)c(F)cc(C(=O)NCc4cc(OC(F)(F)F)ccc4F)c3F)ccc2n1` [Example 368, 3-{2-acetamidoimidazo [1,2-b]pyridazin-6-yl}-2,4,5-trifluoro-N-{[2-fluoro-5-(trifluoromethoxy)phenyl]methyl} benzamide], the values for the IC50 in test [1] and in test [2] were 25 nM and 31 nM, respectively.

Regarding `CC(=O)Nc1cn2nc(-c3cc(F)cc(C(=O)NCC[C@@H](O)c4ccc(Cl)cc4)c3)ccc2n1` [Example 370, N-[(3R)-3-(4-chlorophenyl)-3-hydroxypropyl]-3-{2-acetamidoimidazo [1,2-b]pyridazin-6-yl}-5-fluorobenzamide], the IC50 in test [1] was 34 nM; in test [2], 210 nM.

As for `COc1c(F)cc(-c2ccc3nc(NC(C)=O)cn3n2)cc1C(=O)NCc1cc(OC(F)(F)F)ccc1F` [Example 371, 5-{2-acetamidoimidazo [1,2-b]pyridazin-6-yl}-3-fluoro-N-{[2-fluoro-5-(trifluoromethoxy)phenyl]methyl}-2-methoxybenzamide], the IC50 amounted to 5 nM in test [1] and 15 nM in test [2].

With `CC(=O)Nc1cn2nc(-c3cc(C(=O)NCc4cc(C(F)(F)F)ccc4F)cc(F)c3C)ccc2n1` [Example 372, 3-{2-acetamidoimidazo [1,2-b]pyridazin-6-yl}-5-fluoro-N-{[2-fluoro-5-(trifluoromethyl)phenyl]methyl}-4-methylbenzamide], the IC50 in test [1] worked out at 13 nM; in test [2], 122 nM.

With `CC(=O)Nc1cn2nc(-c3cc(C(=O)NCC[C@@H](O)c4ccc(Cl)cc4)cc(F)c3C)ccc2n1` [Example 373, N-[(3R)-3-(4-chlorophenyl)-3-hydroxypropyl]-3-{2-acetamidoimidazo [1,2-b]pyridazin-6-yl}-5-fluoro-4-methylbenzamide], the figures for the IC50 in test [1] and in test [2] were 11 nM and 51 nM, respectively.

On to `COc1ccc(-c2ccc3nc(NC(C)=O)cn3n2)c(F)c1C(=O)N[C@@H](C)c1cc(OC(F)(F)F)ccc1F` [Example 375, 3-{2-acetamidoimidazo [1,2-b]pyridazin-6-yl}-2-fluoro-N-[(1S)-1[2-fluoro-5-(trifluoromethoxy)phenyl]ethyl]-6-methoxybenzamide], for which the half-inhibitory concentration (IC50) in test [1] amounted to 12 nM; in test [2], 3 nM.

With `COc1ccc(-c2ccc3nc(NC(C)=O)cn3n2)c(F)c1C(=O)NCc1cc(F)ccc1C(=O)N1CCC(F)(F)C1` [Example 376], the IC50 in test [1] and in test [2] was 9 nM each time.

For `COc1ccc(-c2ccc3nc(NC(C)=O)cn3n2)c(F)c1C(=O)NCc1ccccc1OCC1CC1` [Example 377, N-{[2-(cyclopropylmethoxy)phenyl]methyl}-3-{2-acetamidoimidazo [1,2-b]pyridazin-6-yl}-2-fluoro-6-methoxybenzamide], the figures for the IC50 in test [1] and in test [2] were 67 nM and 135 nM, respectively.

Take `[2H]C([2H])([2H])[C@@H](NC(=O)c1c(OC)ccc(-c2ccc3nc(NC(C)=O)cn3n2)c1F)c1cc(OC(F)(F)F)ccc1F` [Example 378, 3-{2-acetamidoimidazo [1,2-b]pyridazin-6-yl}-2-fluoro-N-[(1R)-1-[2-fluoro-5-(trifluoromethoxy)phenyl](2,2,2-Â^2Hâ,f)ethyl]-6-methoxybenzamide]: the IC50 in test [1] amounted to 6 nM; in test [2] it was 1 nM.

In the case of `CC(=O)Nc1cn2nc(-c3ccc(F)c(C(=O)N[C@@H](C)c4cc(OC(F)(F)F)ccc4F)c3F)ccc2n1` [Example 379, 3-{2-acetamidoimidazo [1,2-b]pyridazin-6-yl}-2,6-difluoro-N-[(1S)-1-[2-fluoro-5-(trifluoromethoxy)phenyl]ethyl] benzamide], the half-maximal inhibitory concentration (IC50) in test [1] was 1 nM; in test [2], 5 nM.

For `[2H]C([2H])([2H])[C@@H](NC(=O)c1c(F)ccc(-c2ccc3nc(NC(C)=O)cn3n2)c1F)c1cc(OC(F)(F)F)ccc1F` [Example 380, 3-{2-acetamidoimidazo [1,2-b]pyridazin-6-yl}-2,6-difluoro-N-[(1R)-1-[2-fluoro-5-(trifluoromethoxy)phenyl](2,2,2-Â^2Hâ,f)ethyl} benzamide], the figures for the IC50 in test [1] and in test [2] were 3 nM and 9 nM, respectively.

As for `CC(=O)Nc1cn2nc(-c3ccc(F)c(C(=O)NCc4cc(F)ccc4C(=O)N4CCC(F)(F)CC4)c3F)ccc2n1` [Example 381, N-{[2-(4,4-difluoropiperidine-1-carbonyl)-5-fluorophenyl]methyl}-3-{2-acetamidoimidazo [1,2-b]pyridazin-6-yl}-2,6-difluorobenzamide], the values for the half-inhibitory concentration (IC50) in test [1] and in test [2] were 8 nM and 74 nM, respectively.

In the case of `CC(=O)Nc1cn2nc(-c3cc(C(=O)NCC[C@@H](O)c4ccc(Cl)cc4)c(C)cc3C)ccc2n1` [Example 382, N-[(3R)-3-(4-chlorophenyl)-3-hydroxypropyl]-5-{2-acetamidoimidazo [1,2-b]pyridazin-6-yl}-2,4-dimethylbenzamide], the IC50 in test [1] stood at 4 nM; in test [2], 2 nM.

For the molecule `CC(=O)Nc1cn2nc(-c3cc(C(=O)NCC[C@H](O)c4ccc(Cl)cc4)c(C)cc3C)ccc2n1` [Example 383, N-[(3S)-3-(4-chlorophenyl)-3-hydroxypropyl]-5-{2-acetamidoimidazo [1,2-b]pyridazin-6-yl}-2,4-dimethylbenzamide], the IC50 in test [1] and in test [2] was 3 nM in each case.

For `CC(=O)Nc1cn2nc(-c3cc(C(=O)NCc4cc(C(F)(F)F)cc(Cl)c4F)c(C)cc3C)ccc2n1` [Example 384, N-{[3-chloro-2-fluoro-5-(trifluoromethyl)phenyl]methyl}-5-{2-acetamidoimidazo [1,2-b]pyridazin-6-yl}-2,4-dimethylbenzamide], the IC50 in test [1] came out at 48 nM; in test [2], 99 nM.

In the case of `CC(=O)Nc1cn2nc(-c3ccc(C(F)(F)F)c(C(=O)NCc4cc(C(F)(F)F)ccc4F)c3)ccc2n1` [Example 385, 5-{2-acetamidoimidazo [1,2-b]pyridazin-6-yl}-N-{[2-fluoro-5-(trifluoromethyl)phenyl]methyl}-2-(trifluoromethyl) benzamide], the IC50 in test [1] is 57 nM; in test [2], 189 nM.
